Read-outs that look alike come from different tables or passages of the source.
Tests used:
[1] = tested on: Human cutaneous T-cell lymphoma Hut102 cells; assay: MTT assay, proliferation of human cutaneous T-cell lymphoma Hut102 cells; type: cell-based
Experimental: (§1) The survival rate of cells was determined by MTT assay, which is based on the metabolic reduction of 3-(4,5-dimethyl-2thiahiazoyl)-3,5-di-phenyl-tetrazolium bromide (MTT) by viable cells. MTT is a yellow compound, a dye that accepts hydrogen ion, which can act on the respiratory chain in the mitochondria of viable cells. Under the action of succinate dehydrogenase and cytochrome C, the tetrazolium ring was cleaved to form blue Formazan crystals, and the amount of Formazan crystals generated was only proportional to the number of the viable cells. The enzymes disappeared in dead cells, so Formazan crystals could not be dissolved in MTT solution containing 20% sodium dodecyl sulfate (pH 4.7).
(§2) The cells in the logarithmic growth phase were selected and adjusted to an appropriate cell density, seeded in a 96-well plate, 100 μl/well, and cultured in a 37° C., 5% CO2 incubator. The cells were allowed to adhere overnight, then the culture medium was replaced and the drug was added to cultivate for 48 h. A blank control group, a drug administration group and a positive control group were set, with four repeats in each group.
(§3) After 48 h of drug treatment, the cells were incubated with 0.25 mg/ml MTT at 37° C. for 3-4 h, and 100 μl of dimethyl sulfoxide (DMSO) was added to each well after aspirating the culture solution.

[2] = tested on: Human leukemia HL60 cells; assay: MTT assay, proliferation of human leukemia HL60 cells; type: cell-based; details: Homo sapiens, HL-60, 48 h, read-out: Inhibitive rate (%) against HL60 cells
Experimental: as §1, §2, §3

[3] = HuT-102, 10 μM, Mean ± SE, read-out: Inhibitive rate (%) against Hut102 cells

## CC1(C)CCC(C)(C)c2c1cc1c(c2NC(=O)c2ccc(C(=O)NO)cc2)C(C)(C)CCC1(C)C [OAA3, N-hydroxy-4-[(1,1,4,4,5,5,8,8-octamethyl-1,2,3,4,5,6,7,8-octahydro-9-anthryl)carbamoyl] benzamide]
[1]; [3]
  inhibition at 10 µM: 11.3 ± 0.46%
[2]; 10 μM, 48 h, Mean ± SE
  inhibition at 10 µM: 4.79 ± 6.65%

## COC(=O)c1ccc(C(=O)Nc2c3c(cc4c2C(C)(C)CCC4(C)C)C(C)(C)CCC3(C)C)cc1 [OAA-1, 4-[(1,1,4,4,5,5,8,8-octamethyl-1,2,3,4,5,6,7,8-octahydro-9-anthryl)carbamoyl] methyl Benzoate]
[1]; [3]
  inhibition at 10 µM: 7.11 ± 1.06%
[2]; 10 μM, 48 h, Mean ± SE
  inhibition at 10 µM: 8.27 ± 1.57%

## CC1(C)CCC(C)(C)c2c1cc1c(c2NC(=O)c2ccc(C(=O)O)cc2)C(C)(C)CCC1(C)C [OAA-2, 4-[(1,1,4,4,5,5,8,8-octamethyl-1,2,3,4,5,6,7,8-octahydro-9-anthryl)carbamoyl] benzoic Acid]
[1]; [3]
  inhibition at 10 µM: -3.63 ± 1.07%
[2]; 10 μM, 48 h, Mean ± SE
  inhibition at 10 µM: 3.06 ± 2.23%

## CC1(C)CCC(C)(C)c2c1cc1c(c2NC(=O)c2ccc(C(=O)Nc3ccccc3N)cc2)C(C)(C)CCC1(C)C [OAA-4, N-(2-aminophenyl)-4-[(1,1,4,4,5,5,8,8-octamethyl-1,2,3,4,5,6,7,8-octahydro-9-anthryl)carbamoyl] benzamide]
[1]; [3]
  inhibition at 10 µM: 30.3 ± 0.7%
[2]; 10 μM, 48 h, Mean ± SE
  inhibition at 10 µM: 12.5 ± 1.32%

## CCN(CC)CCNC(=O)c1ccc(C(=O)Nc2c3c(cc4c2C(C)(C)CCC4(C)C)C(C)(C)CCC3(C)C)cc1 [OAA-5, N-[2-(N,N-diethylamino)]ethyl-4-[(1,1,4,4,5,5,8,8-octamethyl-1,2,3,4,5,6,7,8-octahydro-9-anthryl)carbamoyl] benzamide]
[1]; [3]
  inhibition at 10 µM: 27.7 ± 2.38%
[2]; 10 μM, 48 h, Mean ± SE
  inhibition at 10 µM: 16.6 ± 1.43%

## CN(C)CCNC(=O)c1ccc(C(=O)Nc2c3c(cc4c2C(C)(C)CCC4(C)C)C(C)(C)CCC3(C)C)cc1 [OAA-7, N-[2-(N,N-dimethylamino)]ethyl-4-[(1,1,4,4,5,5,8,8-octamethyl-1,2,3,4,5,6,7,8-octahydro-9-anthryl)carbamoyl] benzamide]
[1]; [3]
  inhibition at 10 µM: 8.34 ± 4.37%
[2]; 10 μM, 48 h, Mean ± SE
  inhibition at 10 µM: 10.8 ± 0.69%

## CC1(C)CCC(C)(C)c2c1cc1c(c2NC(=O)c2ccc(C(=O)Nc3ccccc3O)cc2)C(C)(C)CCC1(C)C [OAA-12, N-(2-hydroxyphenyl)-4[(1,1,4,4,5,5,8,8-octamethyl-1,2,3,4,5,6,7,8-octahydro-9-anthryl)carbamoyl] benzamide]
[1]; [3]
  inhibition at 10 µM: 25.1 ± 0.65%

## CC1(C)CCC(C)(C)c2c1cc1c(c2NC(=O)c2ccc(N)cc2)C(C)(C)CCC1(C)C [OAB-1, 4[(1,1,4,4,5,5,8,8-octamethyl-1,2,3,4,5,6,7,8-octahydro-9-anthryl)carbamoyl] aniline]
[1]; [3]
  inhibition at 10 µM: 5.43 ± 2.54%
[2]; 10 μM, 48 h, Mean ± SE
  inhibition at 10 µM: 5.95 ± 2.98%

## CCOC(=O)Nc1ccc(C(=O)Nc2c3c(cc4c2C(C)(C)CCC4(C)C)C(C)(C)CCC3(C)C)cc1 [OAB-2, 4-[(1,1,4,4,5,5,8,8-octamethyl-1,2,3,4,5,6,7,8-octahydro-9-anthryl)carbamoyl] ethyl phenylcarbamate]
[1]; HuT-102, read-out: Inhibitive rate (%) against Hut102 cells
  inhibition at 10 µM: 6.58 ± 1.51%
[2]
  inhibition at 10 µM: 4.51 ± 1.8%

## CC1(C)CCC(C)(C)c2c1cc1c(c2NC(=O)c2ccc(NC(=O)N3CCOCC3)cc2)C(C)(C)CCC1(C)C [OAB-3, 4-[(1,1,4,4,5,5,8,8-octamethyl-1,2,3,4,5,6,7,8-octahydro-9-anthryl)carbamoyl] phenylcarbamoyl-1-morpholine]
[1]; [3]
  inhibition at 10 µM: -0.89 ± 3.47%
[2]; 10 μM, 48 h, Mean ± SE
  inhibition at 10 µM: 1.71 ± 5.44%

## CC1(C)CCC(C)(C)c2c1cc1c(c2NC(=O)c2ccc(NC(=O)Nc3ccccc3N)cc2)C(C)(C)CCC1(C)C [OAB-4, 1-(2-aminophenyl)-3-{4-[(1,1,4,4,5,5,8,8-octamethyl-1,2,3,4,5,6,7,8-octahydro-9-anthryl)carbamoyl]phenyl} urea]
[1]; [3]
  inhibition at 10 µM: 34 ± 0.93%
[2]; 10 μM, 48 h, Mean ± SE
  inhibition at 10 µM: 15.4 ± 1.16%

## CC1(C)CCC(C)(C)c2c1cc1c(c2NC(=O)c2ccc(N(S(C)(=O)=O)S(C)(=O)=O)cc2)C(C)(C)CCC1(C)C [OAB-5, N,N-dimethylsulfonyl-4-[(1,1,4,4,5,5,8,8-octamethyl-1,2,3,4,5,6,7,8-octahydro-9-anthryl)carbamoyl] aniline]
[1]; [3]
  inhibition at 10 µM: 29.1 ± 1.39%
[2]; 10 μM, 48 h, Mean ± SE
  inhibition at 10 µM: 42.3 ± 1.05%
